Experimental data: the supplement of paper PMC13207355

Assays:
Conditions in all cases: exposure time: 72 h
E57 [1] = patient-derived glioblastoma stem cells of mesenchymal subtype; assay: phenotypic distance (Euclidean, principal components) from DMSO controls (arbitrary units); higher = stronger morphological change
E31 [2] = patient-derived glioblastoma stem cells of proneural subtype; assay: as above
E34 [3] = patient-derived glioblastoma stem cells of proneural subtype; assay: as above
E13 [4] = patient-derived glioblastoma stem cells of classical subtype; assay: as above
E21 [5] = patient-derived glioblastoma stem cells of mesenchymal subtype; assay: as above
FT3469 [6] = normal neural stem cell line; assay: as above
E28 [7] = patient-derived glioblastoma stem cells of classical subtype; assay: as above
E57 [8] = assay: surviving fraction (nuclei count normalised to DMSO); higher = more cells surviving (less toxic)
E31 [9] = assay: as above
E34 [10] = assay: as above
E13 [11] = assay: as above
E21 [12] = assay: as above
FT3469 [13] = assay: as above
E28 [14] = assay: as above
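Wherever phenotypic distance (Euclidean, principal components) from DMSO controls is given: cell Painting imaging in 384-well plates, CellProfiler features reduced to at least 20 principal components, Euclidean distance versus same-plate DMSO vehicle wells (0.1% v/v), median over six images per well.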
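Wherever surviving fraction (nuclei count normalised to DMSO) is given: nuclei counted by high-content imaging of Hoechst-stained cells in laminin-coated 384-well plates, relative to 0.1% DMSO vehicle wells, with staurosporine as cell-death control.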

COc1cc2c(cc1-c1c(C)noc1C)ncc1[nH]c(=O)n([C@H](C)c3ccccn3)c12
Conditions	phenotypic distance	surviving fraction
E13 [4], 4.1 nM	0.723	–
E13 [4], 12.3 nM	0.923	–
E13 [4], 37 nM	3.5	–
E13 [4], 111.1 nM	1.73	–
E13 [4], 333.3 nM	2.84	–
E13 [4], 1000 nM	3.74	–
E13 [4], 3000 nM	3.72	–
E13 [11], 4.1 nM	–	0.96
E13 [11], 12.3 nM	–	0.821
E13 [11], 37 nM	–	0.885
E13 [11], 111.1 nM	–	0.757
E13 [11], 333.3 nM	–	0.79
E13 [11], 1000 nM	–	0.562
E13 [11], 3000 nM	–	0.473
E21 [5], 4.1 nM	0.956	–
E21 [5], 12.3 nM	0.64	–
E21 [5], 37 nM	0.943	–
E21 [5], 111.1 nM	1.42	–
E21 [5], 333.3 nM	2.79	–
E21 [5], 1000 nM	4.44	–
E21 [5], 3000 nM	6.05	–
E21 [12], 4.1 nM	–	0.942
E21 [12], 12.3 nM	–	1.05
E21 [12], 37 nM	–	0.96
E21 [12], 111.1 nM	–	0.873
E21 [12], 333.3 nM	–	0.78
E21 [12], 1000 nM	–	0.567
E21 [12], 3000 nM	–	0.391
E28 [7], 4.1 nM	0.949	–
E28 [7], 12.3 nM	0.901	–
E28 [7], 37 nM	0.621	–
E28 [7], 111.1 nM	1.03	–
E28 [7], 333.3 nM	1.35	–
E28 [7], 1000 nM	1.72	–
E28 [7], 3000 nM	1.77	–
E28 [14], 4.1 nM	–	1.05
E28 [14], 12.3 nM	–	0.934
E28 [14], 37 nM	–	1.14
E28 [14], 111.1 nM	–	0.933
E28 [14], 333.3 nM	–	0.976
E28 [14], 1000 nM	–	0.652
E28 [14], 3000 nM	–	0.782
E31 [2], 4.1 nM	0.332	–
E31 [2], 12.3 nM	0.436	–
E31 [2], 37 nM	0.51	–
E31 [2], 111.1 nM	0.757	–
E31 [2], 333.3 nM	0.725	–
E31 [2], 1000 nM	1.98	–
E31 [2], 3000 nM	2.07	–
E31 [9], 4.1 nM	–	1.12
E31 [9], 12.3 nM	–	0.852
E31 [9], 37 nM	–	1.18
E31 [9], 111.1 nM	–	0.997
E31 [9], 333.3 nM	–	1.22
E31 [9], 1000 nM	–	0.817
E31 [9], 3000 nM	–	0.628
E34 [3], 4.1 nM	1.02	–
E34 [3], 12.3 nM	0.609	–
E34 [3], 37 nM	0.687	–
E34 [3], 111.1 nM	1.15	–
E34 [3], 333.3 nM	1.46	–
E34 [3], 1000 nM	1.79	–
E34 [3], 3000 nM	2.96	–
E34 [10], 4.1 nM	–	0.897
E34 [10], 12.3 nM	–	1.11
E34 [10], 37 nM	–	0.994
E34 [10], 111.1 nM	–	0.972
E34 [10], 333.3 nM	–	1.03
E34 [10], 1000 nM	–	0.882
E34 [10], 3000 nM	–	0.683
E57 [1], 4.1 nM	4.06	–
E57 [1], 12.3 nM	7.45	–
E57 [1], 37 nM	0.734	–
E57 [1], 111.1 nM	1.05	–
E57 [1], 333.3 nM	1.91	–
E57 [1], 1000 nM	3.16	–
E57 [1], 3000 nM	3.48	–
E57 [8], 4.1 nM	–	1.04
E57 [8], 12.3 nM	–	0.964
E57 [8], 37 nM	–	1.14
E57 [8], 111.1 nM	–	1.08
E57 [8], 333.3 nM	–	0.915
E57 [8], 1000 nM	–	0.653
E57 [8], 3000 nM	–	0.533
FT3469 [6], 4.1 nM	1.21	–
FT3469 [6], 12.3 nM	1.17	–
FT3469 [6], 37 nM	1.25	–
FT3469 [6], 111.1 nM	1.2	–
FT3469 [6], 333.3 nM	1.04	–
FT3469 [6], 1000 nM	1.53	–
FT3469 [6], 3000 nM	3.06	–
FT3469 [13], 4.1 nM	–	0.954
FT3469 [13], 12.3 nM	–	0.984
FT3469 [13], 37 nM	–	0.981
FT3469 [13], 111.1 nM	–	0.987
FT3469 [13], 333.3 nM	–	0.837
FT3469 [13], 1000 nM	–	0.73
FT3469 [13], 3000 nM	–	0.654
